Laboratory results published in patent US6699877B2 (Gruenenthal GmbH, priority 2000, dated 2004).

Columns and labels:
[1] = tested on: AMPA receptor channels; assay: AMPA-induced ionic currents in RNA-injected Xenopus oocytes; type: cell-based, rat; details: 10 μmol/l compound; AMPA 100 μmol/l; n = 2
Procedure: Xenopus oocytes from stages V and VI (Dumont, J. N., Journal of Morphology, Vol. 136, 1972) were micro-injected with total RNA from brain tissue of adult rats (100-130 ng/cell) and kept in the culture medium (composition in mmol/l: 88.0 NaCl, 1.0 KCl, 1.5 CaCl2, 0.8 MgSO4, 2.4 NaHCO3, 5 HEPES, 100 IU/ml penicillin, 100 μg/ml streptomycin, pH 7.4) for up to 10 days at 20° C. Transmembranous ionic currents were recorded as in conventional two-electrode voltage clamp technology with a holding potential of −70 mV (P. Bloms-Funke P, M. Madeja, U. Muβhoff, E.-J. Speckman, Neuroscience Letters, Vol. 205, p. 115, 1996). The OTC interface and the Cellworks Software were used for recording data and controlling the test apparatus (npi, FRG). […] To test the effects of substances brought about via the glycine B-binding site of the NMDA receptor channel, the glycine dosage/response curve was recorded with and without the respective compound according to the invention. […] The data was analyzed using Igor-Pro software (Version 3.1, WaveMetrics USA). […] The significance for unpaired measured quantities is determined by the Mann-Whitney U-Test and for paired measured quantities by the Wilcoxon test (Sysstat. SPSS Inc., USA). EC50 values are calculated according to the following formula: […]

[2] = biological target: T1, glycine binding site of the NMDA receptor channel (Rattus norvegicus, UniProt P35439); assay: Receptor binding, displacement of (3H)-MDL 105.519 on rat cerebral membrane homogenates; details: 1 nmol/l (3H)-MDL 105.519
T1 construct: from tissue; host or cells: rat brain cortex and hippocampus membrane homogenate
Procedure: Receptor Binding (Glycine Binding Site of the NMDA Receptor Channel)
Experiments to determine the affinity of the compounds according to the invention of Formula I to the glycine binding site of the NMDA receptor channel were carried out on cerebral membrane homogenates (homogenate of Cortex- and Hippocampus-Areal from the brain of male rats, Wistar strain) (B. M. Baron, B. W. Siegel, B. L. Harrison, R. S. Gross, C. and P. Towers, Journal of Pharmacology and Experimental Therapeutics, Vol. 279, p. 62, 1996).
For this purpose, Cortex and Hippocampus from freshly removed rats' brains were dissected, homogenized in 5 mmol/l TRIS-acetate buffer, 0.32 mol/l sacharose pH 7.4 (10 ml/g fresh weight) with a Potter homogenizer (made by Braun/Melsungen, 10 piston strokes at 500 rpm) while cooling with ice and subsequently centrifuged for 10 minutes at 1,000 g and 4° C. The first supernatant material was collected and the sediment homogenized again with […] TRIS-acetate buffer, 0.32 mol/l safcharose pH 7.4 (5 ml/g original fresh weight) using the Potter homogenizer (10 piston strokes at 500 rpm) while cooling with ice and centrifuged for 10 minutes at 1,000 g and 4° C. The resultant supernatant material was combined with the supernatant material from the first centrifugation and centrifuged at 17,000 g for 20 minutes at 4° C. The supernatant material after this centrifugation was discarded, the membrane sediment taken up with 5 mmol/l TRIS-acetate buffer pH 8.0 (20 ml/g original fresh weight) and homogenized with 10 piston strokes at 500 rpm.
The membrane homogenate was then incubated for 1 hour at 4° C. and centrifuged for 30 minutes at 50,000 g and 4° C. The supernatant material was discarded and the centrifuge tube with the membrane sediment sealed with parafilm and frozen for 24 hours at −20° C. The membrane sediment was thawed on the following day, taken up with ice-cold 5 mmol/l TRIS-acetate buffer, 0.1% saponin (w/v) pH 7.0 (10 ml/g original fresh weight), homogenized with 10 piston strokes at 500 rpm and subsequently centrifuged for 20 minutes at 50,00 g and 4° C. The resultant supernatant material was discarded, the sediment taken up in a small volume with 5 mmol/l TRIS-acetate buffer pH 7.0 (about 2 ml/g original fresh weight) and homogenized again with 10 piston strokes at 500 rpm. After determining the protein content, the membrane homogenate was adjusted to a protein concentration of 10 mg protein/ml using 5 mmol/l TRIS-acetate buffer pH 7.0 and frozen in aliquots for testing.
For the receptor binding test, aliquots were thawed, diluted 1:10 with 5 mmol/l TRIS-acetate buffer pH 7.0, homogenized with 10 piston strokes at 500 rpm using the potter homogenizer (10 piston strokes at 500 rpm) while cooling with ice and centrifuged for 60 minutes at 55,000 g at 4° C. The supernatant material was decanted, the membrane sediment adjusted to a protein concentration of 1 mg/ml with ice-cold 50 mmol/l TRIS-acetate buffer pH 7.0, homogenized again with 10 piston strokes at 500 rpm and kept in suspension in the ice bath while stirring on a magnetic stirrer. 100 μl of this membrane homogenate per 1 ml of feedstock was used in each case in the receptor binding test (0.1 mg protein/ml in the final batch).
In the binding test, 50 mmol/l TRIS-acetate buffer pH 7.0 was used as buffer and 1 nmol/l (^3H)-MDL 105.519 (B. M. Baron et al 1996) was used as radioactive ligand. The proportion of unspecific binding was determined in the presence of 1 mmol/l glycine.
In further batches, the compounds according to the invention were added in concentration series and the displacement of the radioactive ligand from its specific binding to the glycine binding site of the NMDA receptor channel determined. The respective triple batches were incubated for 120 minutes at 4° C. and then harvested to determine the radioactive ligands bound to the membrane homogenate by filtration through glass fiber filter mats (GF/B). […]

O=C(O)C1Nc2cc(Cl)cc(Cl)c2C2C=CCC12 (stereo not drawn) [Example 2, 7,9-dichloro-3a,4,5,9b-tetrahydro-3H-cyclopenta[c]quinoline-4-carboxylic Acid]
AMPA-induced ionic currents Inhibition with 10 μmol/l of compounds according to the invention [1]: 5.4% (n = 2)
inhibition at 10 µM ([2]; 10 μmol/l test substance, read-out: Displacement (%, 10 μmol/l) of radioactive ligand from specific binding): 100%
Ki ([2]; mean from three independent experiments, from IC50 by Cheng-Prussoff equation): 300 nM
